For the test, the system named is maxillary nerve (V2, sensory). Nature of the test: Action potential of the maxillary nerve in response to electrical stimulation at face level, recorded non-invasively in vivo. On the set-up: species or system human. To be noted: cream containing 0.75% capsaicin, 2 mg/cm^2 on a 2×4 mm skin zone immediately above the upper lip; 5 minutes after application; versus before application. An excerpt:
The process according to the invention which uses the electrogenesis of the nerves and/or the brain is characterized in that: • two non-invasive electrodes (1,1′) are applied, at least one of the two electrodes being applied to a specific point of the zone of the skin to be analyzed, the measuring point, in order to detect the electrical activity of the nerves of the skin and/or the subcutaneous nerves at that point or even the electrical activity of the brain. These electrodes are associated with a circuit for evaluating the signals detected by the electrodes, this evaluation circuit comprising amplifying elements (2, 2′, 3), processing elements (7) and recording elements for the signals and also a microprocessor (8), • the skin zone to be analyzed is exposed to a stimulation, more particularly an electrical stimulation, and • the changes in the electrical signals detected by the electrodes driven by the stimulation as a function of time are analyzed over a certain period. […]
FIG. 8 compares the variations in the action potential of the maxillary nerve (V2, sensory) in response to an electrical stimulation at face level before and immediately after the topical application of xylocaine (5%). […] A cream containing 0.75% capsaicin was used for this purpose and was applied in a quantity of 2 mg/cm^2 to a 2×4 mm skin zone immediately above the upper lip. […]

Take `COc1cc(CNC(=O)CCCC/C=C/C(C)C)ccc1O` [capsaicin]: the “increase of the amplitude of the nerve potential after application” value is listed as 75%.
